Reference: patent US5219884A, “Immunosuppressant” (Taito Co., Ltd., priority 1990, dated 1993)
Like-named read-outs stand apart in the source and are kept apart here.

What was measured:
mouse L929 cells = test: cytotoxicity to mouse L929 cells; format: cell-based; conditions: 550 nm
Protocol: (§1) Cytotoxicity to mouse L929 cells was assayed as follows:
(§2) L929 cells were suspended to the concentration of 1.5×10^5 cells/ml in the F12 culture medium supplemented with 10% FCS. One hundred μl of the suspension was added to each well of 96-well microculture plates, and cultured at 37° C. in an atmosphere of 5% carbon dioxide for 24 hours, to which 100 μl of the test solution was added and cultured for further 48 hours. After the culture, 100 μl of the supernatant was removed and the absorbancy at 550 nm was measured in the same way as the colormetry using MTT in Experimental Example 1. The percent suppression was calculated by the following formula used as the index of cytotoxicity. [formula]

[1] = cytotoxicity to mouse L929 cells; format: cell-based; conditions: mouse, l929 cells, read-out: Suppression
Protocol: as §1, §2

[2] = test system: mouse allogenic mixed lymphocyte reaction (BALB/c responder, C57BL/6 stimulator spleen cells); test: mouse allogenic mixed lymphocyte reaction (MLR), blastogenesis by 3H-thymidine uptake; format: cell-based; conditions: for inhibition at 0.001 µg/mL / inhibition at 0.01 µg/mL / inhibition at 0.1 µg/mL: Mus musculus, Lymphocyte, read-out: Suppression
Protocol: The immunosuppressive activity of the compounds (I) and their lactones was assayed by using mouse allogenic mixed lymphocyte reaction (hereinafter sometimes abbreviated as MLR). Mouse allogenic MLR was carried out by mixed culture of the BALB/c mouse (H-2^d) spleen cells as the responder cells and the mitomycin C-treated C57BL/6 (H-2^b) spleen cells as the stimulator cells in equal amounts.
The responder cells were prepared as follows: The spleen was resected from 5- to 6-week-old male BALB/c mice, and single cell suspension of spleen cells was prepared by using the RPMI1640 culture medium (containing 60 μg/ml of kanamycin sulfate, 2 mM of L-glutamine, 10 mM of N-2-hydroxyethylpiperazine-N'-2-ethanesulfonate (HEPES) and 0.1% sodium hydrogencarbonate) to which heat-inactivated fetal calf serum (hereinaftersometimes abbreviated as FCS) had been added to 5%. After hemolytic treatment, the cell suspension was adjusted to a concentration of 10^7 cells/ml by using the RPMI1640 culture medium supplemented with 10^-4 M 2-mercaptoethanol and 20% FCS, and was used as the responder cell suspension.
The stimulator cells were prepared as follows:
The spleen was resected from 5- to 6-week-old male C57BL/6 mice, and single cell suspension of spleen cells was prepared by using the RPMI1640 culture medium. After hemolytic treatment, the cells were treated with 40 μg/ml of mitomycin C at 37° C. for 60 minutes. After washing three times, the concentration of the cell suspension was adjusted to 10^7 cells/ ml by using the RPMI1640 culture medium supplemented with 10^-4 M 2-mercaptoethanol and 20% FCS, and was used as the stimulator cell suspension.
Fifty μl of the responder cell suspension, 50μl of the stimulator cell suspension prepared by the above method, and 100 μl of the test substance were placed in 96-well microculture plates, and were cultured at 37° C. in an atmosphere of 5% carbon dioxide for 4 days.
The blastogenesis of lymphocytes was assayed by a method of ^3 H-thymidine uptake as an index. That is, after termination of the culture, 0.5 μCi/well of ^3 H-thymidine was added and cultured for 4 hours. Cells were harvested by a cell-harvester, and the radioactivity incorporated into the cells was determined by a liquid scintillation counter to obtain the index of blastogenesis of lymphocytes in the mouse allogenic MLR. The suppression of the mouse allogenic MLR was evaluated by calculating the percent suppression by the following formula. [formula]
The test substance was dissolved in methanol or suspended in a mixture of methanol and acetic acid, and then diluted with the RPMI1640 culture medium.

MOLT4 = test: cytotoxicity to tumor cell line MOLT4; format: cell-based, human
Protocol: (§3) Cytotoxicity to human tumor cell lines was examined as follows:
(§4) Cells of human cell lines, K562, MOLT4, U937, HL60, KATOIII, KB, PC-6, PC-14 and CCRF-CEM were separately suspended to the concentration of 2×10^5 cells/ml in the RPMI1640 culture medium supplemented with 20% FCS. Fifty μl of this suspension was added to each well of 96-well microculture plates to which 50 μl of the test solution had been added. After culturing at 37° C. in an atmosphere of 5% carbon dioxide for 72 hours, the absorbancy at 550 nm was measured in the same way as the colorimetry using MTT in Experimental Example 1, and the percent suppression was calculated in the same manner as in Experimental Example 14, which was used as the index of cytotoxicity.

[3] = cytotoxicity to tumor cell line MOLT4; format: cell-based, human; conditions: human, molt4 cells, read-out: Suppression
Protocol: as §3, §4

PC-14 = test: in vitro; format: cell-based, human
Protocol: as §3, §4

KB = test: in vitro; format: cell-based, human
Protocol: as §3, §4

U937 = test: in vitro; format: cell-based, human
Protocol: as §3, §4

CCRF-CEM = test: in vitro; format: cell-based, human
Protocol: as §3, §4

in vitro = format: cell-based, human; conditions: human, read-out: Suppression
Protocol: as §3, §4

HL60 = test: in vitro; format: cell-based, human
Protocol: as §3, §4

K562 = test: in vitro; format: cell-based, human
Protocol: as §3, §4

CCCCCCC(O)CCCCCCCCCC(O)C(O)C(N)(CO)C(=O)O (stereo not drawn) [Example 9]
Absorbancy (mouse L929 cells; 1 μg/ml): 0.749 | Absorbancy (mouse L929 cells; 10 μg/ml): 0.747 | Absorbancy (mouse L929 cells; 100 μg/ml): 0.567 | cytotoxicity at 48 h ([1]; 1 μg/ml): 0% | cytotoxicity at 48 h ([1]; 10 μg/ml): 0% | cytotoxicity at 48 h ([1]; 100 μg/ml): 1% | 3H-thymidine uptake ([2]; 0.001 μg/ml): 25682 cpm | 3H-thymidine uptake ([2]; 0.01 μg/ml): 23668 cpm | 3H-thymidine uptake ([2]; 0.1 μg/ml): 3167 cpm | inhibition at 0.001 µg/mL ([2]; 0.001 μg/ml): 7.5% | inhibition at 0.01 µg/mL ([2]; 0.01 μg/ml): 17.1% | inhibition at 0.1 µg/mL ([2]; 0.1 μg/ml): 100% | Absorbancy (MOLT4; 0.1 μg/ml): 0.111 | Absorbancy (MOLT4; 1.0 μg/ml): 0.132 | Absorbancy (MOLT4; 10.0 μg/ml): 0.142 | cytotoxicity at 72 h ([3]; 0.1 μg/ml): 23.4% | cytotoxicity at 72 h ([3]; 1.0 μg/ml): 9% | cytotoxicity at 72 h ([3]; 10.0 μg/ml): 2.1% | Absorbancy (PC-14; 0.1 μg/ml): 0.404 | Absorbancy (PC-14; 1.0 μg/ml): 0.441 | Absorbancy (PC-14; 10.0 μg/ml): 0.374 | Absorbancy (KB; 0.1 μg/ml): 0.778 | Absorbancy (KB; 1.0 μg/ml): 0.762 | Absorbancy (KB; 10.0 μg/ml): 0.696 | Absorbancy (U937; 0.1 μg/ml): 0.640 | Absorbancy (U937; 1.0 μg/ml): 0.592 | Absorbancy (U937; 10.0 μg/ml): 0.584 | Absorbancy (CCRF-CEM; 0.1 μg/ml): 0.702 | Absorbancy (CCRF-CEM; 1.0 μg/ml): 0.696 | Absorbancy (CCRF-CEM; 10.0 μg/ml): 0.680 | cytotoxicity at 72 h (in vitro; ccrf-cem cells, 0.1 μg/ml): 0% | cytotoxicity at 72 h (in vitro; ccrf-cem cells, 1.0 μg/ml): 0% | cytotoxicity at 72 h (in vitro; ccrf-cem cells, 10.0 μg/ml): 1.7% | cytotoxicity at 72 h (in vitro; hl60 cells, 0.1 μg/ml): 13.8% | cytotoxicity at 72 h (in vitro; hl60 cells, 1.0 μg/ml): 16.7% | cytotoxicity at 72 h (in vitro; hl60 cells, 10.0 μg/ml): 20.9% | cytotoxicity at 72 h (in vitro; k562 cells, 0.1 μg/ml): 1.8% | cytotoxicity at 72 h (in vitro; k562 cells, 1.0 μg/ml): 5.5% | cytotoxicity at 72 h (in vitro; k562 cells, 10.0 μg/ml): 17.7% | cytotoxicity at 72 h (in vitro; kb cells, 0.1 μg/ml): 0% | cytotoxicity at 72 h (in vitro; kb cells, 1.0 μg/ml): 0% | cytotoxicity at 72 h (in vitro; kb cells, 10.0 μg/ml): 4.7% | cytotoxicity at 72 h (in vitro; pc-14 cells, 0.1 μg/ml): 14.8% | cytotoxicity at 72 h (in vitro; pc-14 cells, 1.0 μg/ml): 7% | cytotoxicity at 72 h (in vitro; pc-14 cells, 10.0 μg/ml): 21.1% | cytotoxicity at 72 h (in vitro; u937 cells, 0.1 μg/ml): 0% | cytotoxicity at 72 h (in vitro; u937 cells, 1.0 μg/ml): 0% | cytotoxicity at 72 h (in vitro; u937 cells, 10.0 μg/ml): 0% | Absorbancy (HL60; 0.1 μg/ml): 0.450 | Absorbancy (HL60; 1.0 μg/ml): 0.435 | Absorbancy (HL60; 10.0 μg/ml): 0.413 | Absorbancy (K562; 0.1 μg/ml): 0.378 | Absorbancy (K562; 1.0 μg/ml): 0.364 | Absorbancy (K562; 10.0 μg/ml): 0.317

CCCCCCC(O)CCCCCCCCCC1OC(=O)C(N)(CO)C1O (stereo not drawn) [Example 10]
Absorbancy (mouse L929 cells; 1 μg/ml): 0.722 | Absorbancy (mouse L929 cells; 10 μg/ml): 0.661 | Absorbancy (mouse L929 cells; 100 μg/ml): 0.023 | cytotoxicity at 48 h ([1]; 1 μg/ml): 0% | cytotoxicity at 48 h ([1]; 10 μg/ml): 0% | cytotoxicity at 48 h ([1]; 100 μg/ml): 96% | 3H-thymidine uptake ([2]; 0.001 μg/ml): 19595 cpm | 3H-thymidine uptake ([2]; 0.01 μg/ml): 19019 cpm | 3H-thymidine uptake ([2]; 0.1 μg/ml): 2405 cpm | inhibition at 0.001 µg/mL ([2]; 0.001 μg/ml): 36.4% | inhibition at 0.01 µg/mL ([2]; 0.01 μg/ml): 39.1% | inhibition at 0.1 µg/mL ([2]; 0.1 μg/ml): 100% | Absorbancy (MOLT4; 0.1 μg/ml): 0.148 | Absorbancy (MOLT4; 1.0 μg/ml): 0.159 | Absorbancy (MOLT4; 10.0 μg/ml): 0.170 | cytotoxicity at 72 h ([3]; 0.1 μg/ml): 0% | cytotoxicity at 72 h ([3]; 1.0 μg/ml): 0% | cytotoxicity at 72 h ([3]; 10.0 μg/ml): 0% | Absorbancy (PC-14; 0.1 μg/ml): 0.433 | Absorbancy (PC-14; 1.0 μg/ml): 0.411 | Absorbancy (PC-14; 10.0 μg/ml): 0.317 | Absorbancy (KB; 0.1 μg/ml): 0.743 | Absorbancy (KB; 1.0 μg/ml): 0.735 | Absorbancy (KB; 10.0 μg/ml): 0.610 | Absorbancy (U937; 0.1 μg/ml): 0.545 | Absorbancy (U937; 1.0 μg/ml): 0.541 | Absorbancy (U937; 10.0 μg/ml): 0.517 | Absorbancy (CCRF-CEM; 0.1 μg/ml): 0.672 | Absorbancy (CCRF-CEM; 1.0 μg/ml): 0.647 | Absorbancy (CCRF-CEM; 10.0 μg/ml): 0.645 | cytotoxicity at 72 h (in vitro; ccrf-cem cells, 0.1 μg/ml): 2.9% | cytotoxicity at 72 h (in vitro; ccrf-cem cells, 1.0 μg/ml): 6.5% | cytotoxicity at 72 h (in vitro; ccrf-cem cells, 10.0 μg/ml): 6.8% | cytotoxicity at 72 h (in vitro; hl60 cells, 0.1 μg/ml): 14.4% | cytotoxicity at 72 h (in vitro; hl60 cells, 1.0 μg/ml): 20.5% | cytotoxicity at 72 h (in vitro; hl60 cells, 10.0 μg/ml): 22.3% | cytotoxicity at 72 h (in vitro; k562 cells, 0.1 μg/ml): 0% | cytotoxicity at 72 h (in vitro; k562 cells, 1.0 μg/ml): 10.9% | cytotoxicity at 72 h (in vitro; k562 cells, 10.0 μg/ml): 19.2% | cytotoxicity at 72 h (in vitro; kb cells, 0.1 μg/ml): 0% | cytotoxicity at 72 h (in vitro; kb cells, 1.0 μg/ml): 0% | cytotoxicity at 72 h (in vitro; kb cells, 10.0 μg/ml): 16.4% | cytotoxicity at 72 h (in vitro; pc-14 cells, 0.1 μg/ml): 8.6% | cytotoxicity at 72 h (in vitro; pc-14 cells, 1.0 μg/ml): 13.3% | cytotoxicity at 72 h (in vitro; pc-14 cells, 10.0 μg/ml): 33.1% | cytotoxicity at 72 h (in vitro; u937 cells, 0.1 μg/ml): 6.5% | cytotoxicity at 72 h (in vitro; u937 cells, 1.0 μg/ml): 7.2% | cytotoxicity at 72 h (in vitro; u937 cells, 10.0 μg/ml): 11.3% | Absorbancy (HL60; 0.1 μg/ml): 0.447 | Absorbancy (HL60; 1.0 μg/ml): 0.415 | Absorbancy (HL60; 10.0 μg/ml): 0.406 | Absorbancy (K562; 0.1 μg/ml): 0.390 | Absorbancy (K562; 1.0 μg/ml): 0.343 | Absorbancy (K562; 10.0 μg/ml): 0.311
